Results as given in paper doi:10.1101/2023.11.24.568596v1 (biorxiv, 2023).

Experiments:
Details in all cases: binder
PAK1 = PAK1 (Homo sapiens, UniProt Q13153)
FECH = target: T1, FECH (Homo sapiens, UniProt P22830)
T1 sequence (P22830 1-423): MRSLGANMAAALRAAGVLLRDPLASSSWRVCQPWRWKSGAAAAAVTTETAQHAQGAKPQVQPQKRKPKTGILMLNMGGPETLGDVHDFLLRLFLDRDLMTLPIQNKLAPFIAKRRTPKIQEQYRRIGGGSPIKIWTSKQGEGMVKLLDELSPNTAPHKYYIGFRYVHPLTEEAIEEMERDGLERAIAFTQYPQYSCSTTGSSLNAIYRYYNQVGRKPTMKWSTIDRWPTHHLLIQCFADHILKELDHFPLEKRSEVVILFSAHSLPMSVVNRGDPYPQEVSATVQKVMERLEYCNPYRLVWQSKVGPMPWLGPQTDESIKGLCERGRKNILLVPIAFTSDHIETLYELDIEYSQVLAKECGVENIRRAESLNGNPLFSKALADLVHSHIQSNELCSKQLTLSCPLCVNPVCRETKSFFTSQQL

JNK2 = JNK2 (Homo sapiens, UniProt P45984)
Sequence of JNK2 (P45984 whole entry): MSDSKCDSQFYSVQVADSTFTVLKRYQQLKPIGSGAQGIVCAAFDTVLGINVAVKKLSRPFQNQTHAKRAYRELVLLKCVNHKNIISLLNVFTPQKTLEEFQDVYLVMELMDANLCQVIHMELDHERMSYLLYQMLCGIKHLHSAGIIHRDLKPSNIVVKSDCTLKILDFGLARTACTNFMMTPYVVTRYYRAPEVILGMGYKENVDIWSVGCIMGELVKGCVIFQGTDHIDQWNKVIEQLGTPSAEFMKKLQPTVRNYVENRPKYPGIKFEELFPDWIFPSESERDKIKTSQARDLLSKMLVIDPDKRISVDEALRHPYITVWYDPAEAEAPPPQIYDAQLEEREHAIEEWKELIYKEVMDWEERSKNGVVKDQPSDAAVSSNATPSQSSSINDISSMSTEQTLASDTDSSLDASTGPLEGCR

CaMK4 = target: T2, CaMK4 (Homo sapiens, UniProt Q16566)
T2 sequence (Q16566 1-473): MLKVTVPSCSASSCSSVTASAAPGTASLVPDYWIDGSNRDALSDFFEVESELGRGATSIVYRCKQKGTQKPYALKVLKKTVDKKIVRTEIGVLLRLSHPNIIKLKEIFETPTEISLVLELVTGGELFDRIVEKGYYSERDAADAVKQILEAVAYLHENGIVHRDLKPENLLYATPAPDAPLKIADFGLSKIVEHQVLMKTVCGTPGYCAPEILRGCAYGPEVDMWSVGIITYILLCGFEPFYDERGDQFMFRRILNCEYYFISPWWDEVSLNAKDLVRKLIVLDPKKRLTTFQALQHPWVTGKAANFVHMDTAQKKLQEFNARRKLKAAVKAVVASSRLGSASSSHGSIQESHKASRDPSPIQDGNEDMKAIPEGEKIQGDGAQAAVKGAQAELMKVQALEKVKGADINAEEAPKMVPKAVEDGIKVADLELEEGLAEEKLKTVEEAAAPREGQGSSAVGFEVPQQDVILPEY

JNK1 = JNK1 (Homo sapiens, UniProt P45983)
Sequence of JNK1 (P45983 whole entry): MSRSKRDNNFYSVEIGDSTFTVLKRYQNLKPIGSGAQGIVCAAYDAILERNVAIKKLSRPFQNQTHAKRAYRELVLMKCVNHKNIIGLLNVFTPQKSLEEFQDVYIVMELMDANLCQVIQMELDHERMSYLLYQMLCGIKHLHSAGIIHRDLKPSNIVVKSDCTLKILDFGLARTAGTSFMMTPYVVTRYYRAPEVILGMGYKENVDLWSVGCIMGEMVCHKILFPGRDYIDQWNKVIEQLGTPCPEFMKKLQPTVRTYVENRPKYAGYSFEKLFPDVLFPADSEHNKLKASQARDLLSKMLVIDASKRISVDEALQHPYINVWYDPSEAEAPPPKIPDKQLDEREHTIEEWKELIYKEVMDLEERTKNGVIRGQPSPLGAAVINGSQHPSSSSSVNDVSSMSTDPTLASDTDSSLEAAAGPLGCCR

MER = target: T3, MER (Homo sapiens, UniProt Q12866)
T3 sequence (Q12866 1-999): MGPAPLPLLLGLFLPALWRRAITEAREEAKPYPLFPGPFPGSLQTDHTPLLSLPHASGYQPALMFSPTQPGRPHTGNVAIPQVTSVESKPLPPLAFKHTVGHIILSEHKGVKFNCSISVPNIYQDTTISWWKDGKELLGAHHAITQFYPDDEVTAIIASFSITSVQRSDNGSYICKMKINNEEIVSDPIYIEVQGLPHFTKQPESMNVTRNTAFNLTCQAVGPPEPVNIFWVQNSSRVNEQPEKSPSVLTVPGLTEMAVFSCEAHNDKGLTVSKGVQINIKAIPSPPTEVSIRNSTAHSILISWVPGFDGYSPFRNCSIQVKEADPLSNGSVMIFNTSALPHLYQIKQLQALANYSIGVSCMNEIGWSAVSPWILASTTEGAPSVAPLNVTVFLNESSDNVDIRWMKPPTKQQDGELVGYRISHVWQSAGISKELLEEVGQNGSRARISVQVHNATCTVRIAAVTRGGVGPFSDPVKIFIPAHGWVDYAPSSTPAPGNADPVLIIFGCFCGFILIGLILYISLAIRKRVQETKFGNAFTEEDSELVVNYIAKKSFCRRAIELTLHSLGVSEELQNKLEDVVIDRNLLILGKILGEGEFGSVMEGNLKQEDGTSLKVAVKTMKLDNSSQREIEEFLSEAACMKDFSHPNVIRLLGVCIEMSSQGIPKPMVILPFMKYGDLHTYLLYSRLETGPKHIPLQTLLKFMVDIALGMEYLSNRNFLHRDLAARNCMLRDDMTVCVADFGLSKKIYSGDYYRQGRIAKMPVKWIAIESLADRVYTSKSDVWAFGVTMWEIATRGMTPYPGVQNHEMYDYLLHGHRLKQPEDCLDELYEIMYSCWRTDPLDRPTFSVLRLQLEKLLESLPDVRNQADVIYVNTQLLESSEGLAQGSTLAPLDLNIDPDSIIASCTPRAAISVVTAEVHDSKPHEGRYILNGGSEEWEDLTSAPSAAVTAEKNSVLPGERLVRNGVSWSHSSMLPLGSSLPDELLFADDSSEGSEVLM

MRCKa = MRCKa (Homo sapiens, UniProt Q5VT25)
Sequence of MRCKa (Q5VT25 whole entry): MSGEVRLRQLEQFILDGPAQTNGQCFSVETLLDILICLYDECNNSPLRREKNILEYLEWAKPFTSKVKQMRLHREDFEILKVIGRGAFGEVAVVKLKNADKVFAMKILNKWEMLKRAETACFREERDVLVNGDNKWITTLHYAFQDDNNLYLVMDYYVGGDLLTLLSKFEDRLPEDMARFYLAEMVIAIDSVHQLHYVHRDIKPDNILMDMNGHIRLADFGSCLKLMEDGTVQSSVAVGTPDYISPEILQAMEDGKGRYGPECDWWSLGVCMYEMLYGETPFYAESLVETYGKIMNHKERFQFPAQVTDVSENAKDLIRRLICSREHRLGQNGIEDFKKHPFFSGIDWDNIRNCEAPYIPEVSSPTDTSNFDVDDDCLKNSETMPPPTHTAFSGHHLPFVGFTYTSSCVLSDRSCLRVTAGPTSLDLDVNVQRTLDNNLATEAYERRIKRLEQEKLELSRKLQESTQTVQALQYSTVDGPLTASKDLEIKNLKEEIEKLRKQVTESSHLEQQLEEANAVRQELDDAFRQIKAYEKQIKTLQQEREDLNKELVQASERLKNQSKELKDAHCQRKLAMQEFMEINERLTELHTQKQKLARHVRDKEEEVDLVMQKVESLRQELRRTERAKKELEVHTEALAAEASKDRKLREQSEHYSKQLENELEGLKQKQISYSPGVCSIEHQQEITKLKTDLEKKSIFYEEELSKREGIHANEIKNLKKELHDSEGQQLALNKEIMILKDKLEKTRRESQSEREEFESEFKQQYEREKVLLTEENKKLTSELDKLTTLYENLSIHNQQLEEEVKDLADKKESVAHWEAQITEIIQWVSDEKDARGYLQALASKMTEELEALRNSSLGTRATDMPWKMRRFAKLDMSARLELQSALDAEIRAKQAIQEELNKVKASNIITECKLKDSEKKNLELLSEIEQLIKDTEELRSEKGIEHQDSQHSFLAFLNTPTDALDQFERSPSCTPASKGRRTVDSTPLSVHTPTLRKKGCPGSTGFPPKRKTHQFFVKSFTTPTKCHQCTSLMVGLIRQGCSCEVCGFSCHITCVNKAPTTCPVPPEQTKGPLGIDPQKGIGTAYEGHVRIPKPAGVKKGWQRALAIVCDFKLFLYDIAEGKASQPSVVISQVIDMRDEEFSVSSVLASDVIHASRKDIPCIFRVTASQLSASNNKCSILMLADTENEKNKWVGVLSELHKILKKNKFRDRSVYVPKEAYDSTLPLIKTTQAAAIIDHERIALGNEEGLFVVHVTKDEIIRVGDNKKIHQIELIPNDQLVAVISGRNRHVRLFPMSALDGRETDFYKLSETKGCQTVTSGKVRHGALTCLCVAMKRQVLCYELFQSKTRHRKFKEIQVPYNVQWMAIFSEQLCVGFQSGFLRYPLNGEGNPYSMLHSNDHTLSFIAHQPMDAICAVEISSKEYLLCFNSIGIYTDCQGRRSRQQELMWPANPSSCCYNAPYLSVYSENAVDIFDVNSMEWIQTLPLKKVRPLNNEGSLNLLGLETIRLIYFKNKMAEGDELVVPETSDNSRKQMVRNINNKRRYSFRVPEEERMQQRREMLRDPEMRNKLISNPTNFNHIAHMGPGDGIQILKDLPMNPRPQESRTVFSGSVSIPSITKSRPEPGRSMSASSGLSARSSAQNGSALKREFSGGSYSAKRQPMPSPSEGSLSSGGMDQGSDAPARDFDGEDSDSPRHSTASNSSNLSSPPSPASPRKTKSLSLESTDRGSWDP

MAP2K4 = target: T4, MAP2K4 (Homo sapiens, UniProt P45985)
T4 sequence (P45985 1-399): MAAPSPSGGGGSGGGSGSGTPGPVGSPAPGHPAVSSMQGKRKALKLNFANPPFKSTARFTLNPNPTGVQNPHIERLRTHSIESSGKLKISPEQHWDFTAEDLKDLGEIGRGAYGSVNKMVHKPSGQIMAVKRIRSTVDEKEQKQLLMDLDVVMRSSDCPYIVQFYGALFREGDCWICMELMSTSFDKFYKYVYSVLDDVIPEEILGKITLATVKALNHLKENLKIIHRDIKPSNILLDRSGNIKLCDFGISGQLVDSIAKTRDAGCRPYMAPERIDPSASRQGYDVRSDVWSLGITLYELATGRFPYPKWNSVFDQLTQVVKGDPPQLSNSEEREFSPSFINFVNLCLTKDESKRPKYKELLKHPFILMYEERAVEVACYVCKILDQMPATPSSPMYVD

PAK4 = PAK4 (Homo sapiens, UniProt O96013)
Sequence of PAK4 (O96013 whole entry): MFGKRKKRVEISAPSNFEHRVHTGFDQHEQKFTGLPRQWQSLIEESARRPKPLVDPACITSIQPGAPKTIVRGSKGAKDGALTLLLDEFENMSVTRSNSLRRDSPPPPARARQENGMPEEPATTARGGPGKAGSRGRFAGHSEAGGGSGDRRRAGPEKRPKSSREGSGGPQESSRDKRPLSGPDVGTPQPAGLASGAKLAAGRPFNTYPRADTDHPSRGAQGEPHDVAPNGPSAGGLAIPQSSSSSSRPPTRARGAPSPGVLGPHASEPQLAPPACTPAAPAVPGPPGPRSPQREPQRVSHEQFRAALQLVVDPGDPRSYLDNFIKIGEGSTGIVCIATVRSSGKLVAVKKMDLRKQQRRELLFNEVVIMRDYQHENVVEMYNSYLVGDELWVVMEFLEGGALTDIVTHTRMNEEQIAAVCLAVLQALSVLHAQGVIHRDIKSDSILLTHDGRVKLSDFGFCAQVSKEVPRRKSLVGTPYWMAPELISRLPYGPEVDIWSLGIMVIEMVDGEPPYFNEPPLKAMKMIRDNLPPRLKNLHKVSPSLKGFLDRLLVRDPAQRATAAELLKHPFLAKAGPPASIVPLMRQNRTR

Sequence of PAK1 (Q13153 whole entry): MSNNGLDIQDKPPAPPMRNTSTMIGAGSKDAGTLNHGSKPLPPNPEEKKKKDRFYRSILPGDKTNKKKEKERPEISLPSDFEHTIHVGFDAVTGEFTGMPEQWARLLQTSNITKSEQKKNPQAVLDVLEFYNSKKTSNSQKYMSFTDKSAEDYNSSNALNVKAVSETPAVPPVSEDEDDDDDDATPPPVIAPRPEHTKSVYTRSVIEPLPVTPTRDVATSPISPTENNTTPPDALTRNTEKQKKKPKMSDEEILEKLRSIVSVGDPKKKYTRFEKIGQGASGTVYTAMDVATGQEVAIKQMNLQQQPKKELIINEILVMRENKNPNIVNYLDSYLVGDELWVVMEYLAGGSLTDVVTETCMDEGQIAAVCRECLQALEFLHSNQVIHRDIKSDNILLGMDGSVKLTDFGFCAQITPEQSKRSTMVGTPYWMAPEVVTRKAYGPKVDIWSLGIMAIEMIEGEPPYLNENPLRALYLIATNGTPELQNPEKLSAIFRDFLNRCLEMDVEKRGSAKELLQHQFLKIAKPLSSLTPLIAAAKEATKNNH

## Cc1cccc(-c2ccc(-c3cc4cnc(Nc5ccc(C)c(O)c5)nc4n(CCCCN)c3=O)c(Cl)c2)n1 [compound 32, 8-(4-Aminobutyl)-6-(2-chloro-4-(6-methylpyridin-2-yl)phenyl)-2-((3-hydroxy-4-methylphenyl)amino)pyrido[2,3-d]pyrimidin-7(8H)-one]
PAK1
  ΔTm 32: 10.4 °C
FECH
  ΔTm 32: 3.8 °C
JNK2
  ΔTm 32: 3.3 °C
CaMK4
  ΔTm 32: 4.9 °C
JNK1
  ΔTm 32: 1.9 °C
MER
  ΔTm 32: 2.8 °C
MRCKa
  ΔTm 32: 4.0 °C
MAP2K4
  ΔTm 32: 10.8 °C
PAK4
  ΔTm 32: 7.9 °C

## Cc1cccc(-c2ccc(-c3cc4cnc(Nc5ccc(O)cc5)nc4n(CCCCN)c3=O)c(Cl)c2)n1 [compound 31, 8-(4-Aminobutyl)-6-(2-chloro-4-(6-methylpyridin-2-yl)phenyl)-2-((4-hydroxyphenyl)amino) pyrido[2,3-d]pyrimidin-7(8H)-one]
PAK1
  ΔTm 31: 10.6 °C
FECH
  ΔTm 31: 2.0 °C
JNK2
  ΔTm 31: 4.2 °C
CaMK4
  ΔTm 31: 5.0 °C
JNK1
  ΔTm 31: 2.7 °C
MER
  ΔTm 31: 3.3 °C
MRCKa
  ΔTm 31: 3.3 °C
MAP2K4
  ΔTm 31: 10.8 °C
PAK4
  ΔTm 31: 8.5 °C

## Cc1cccc(-c2ccc(-c3cc4cnc(Nc5cc(C(F)(F)F)ccc5C)nc4n(CCCCN)c3=O)c(Cl)c2)n1 [compound 28, 8-(4-Aminobutyl)-6-(2-chloro-4-(6-methylpyridin-2-yl)phenyl)-2-((2-methyl-5-(trifluoromethyl)phenyl)amino)pyrido[2,3-d]pyrimidin-7(8H)-one]
PAK1
  ΔTm 28: 6.0 °C
FECH
  ΔTm 28: 10.6 °C
JNK2
  ΔTm 28: 0.0 °C
CaMK4
  ΔTm 28: 3.9 °C
JNK1
  ΔTm 28: 2.8 °C
MER
  ΔTm 28: 0.1 °C
MRCKa
  ΔTm 28: -1.0 °C
MAP2K4
  ΔTm 28: 11.0 °C
PAK4
  ΔTm 28: 3.5 °C

## Cc1cccc(-c2ccc(-c3cc4cnc(NCCCN5CCNCC5)nc4n(CCCCN)c3=O)c(Cl)c2)n1 [compound 29, 8-(4-Aminobutyl)-6-(2-chloro-4-(6-methylpyridin-2-yl)phenyl)-2-((3-(piperazin-1-yl)propyl)amino)pyrido[2,3-d]pyrimidin-7(8H)-one]
PAK1
  ΔTm 29: 7.1 °C
FECH
  ΔTm 29: -0.4 °C
JNK2
  ΔTm 29: -0.1 °C
CaMK4
  ΔTm 29: 1.5 °C
JNK1
  ΔTm 29: 0.7 °C
MER
  ΔTm 29: 1.0 °C
MRCKa
  ΔTm 29: -0.3 °C
MAP2K4
  ΔTm 29: 3.5 °C
PAK4
  ΔTm 29: 2.6 °C

## Cc1cccc(-c2ccc(-c3cc4cnc(Nc5ccc(CCCO)cc5)nc4n(CCCCN)c3=O)c(Cl)c2)n1 [compound 30, 8-(4-Aminobutyl)-6-(2-chloro-4-(6-methylpyridin-2-yl)phenyl)-2-((4-(3-hydroxypropyl)phenyl)amino)pyrido[2,3-d]pyrimidin-7(8H)-one]
PAK1
  ΔTm 30: 10.7 °C
FECH
  ΔTm 30: 0.5 °C
JNK2
  ΔTm 30: 4.3 °C
CaMK4
  ΔTm 30: 5.5 °C
JNK1
  ΔTm 30: 2.8 °C
MER
  ΔTm 30: 3.1 °C
MRCKa
  ΔTm 30: 4.4 °C
MAP2K4
  ΔTm 30: 9.7 °C
PAK4
  ΔTm 30: 9.0 °C

## Cc1cccc(-c2ccc(-c3cc4cnc(NCCCN5CCCC5=O)nc4n(CCCCN)c3=O)c(Cl)c2)n1 [compound 27, MR30]
PAK1
  ΔTm MR30 (27): 4.6 °C
FECH
  ΔTm MR30 (27): 0.5 °C
JNK2
  ΔTm MR30 (27): 0.7 °C
CaMK4
  ΔTm MR30 (27): 2.5 °C
JNK1
  ΔTm MR30 (27): 0.4 °C
MER
  ΔTm MR30 (27): 0.7 °C
MRCKa
  ΔTm MR30 (27): -0.2 °C
MAP2K4
  ΔTm MR30 (27): 5.2 °C
PAK4
  ΔTm MR30 (27): 2.8 °C
